Source: ChEMBL document CHEMBL6153032, “Discovery of a highly potent, N-terminal domain-targeting degrader of AR-FL/AR-V7 for the treatment of prostate cancer” (Eur J Med Chem, 2025)
pIC50: −log10 of the molar value. Active and inactive are the calls of the source. The calls are words filed in the database; no cut-off is given here.

Tests used:
[1] = test system: Protein cereblon/Androgen receptor (Homo sapiens), P10275+Q96SW2 [UNDEFINED MUTATION]; experiment: PROTAC activity at AR-V7/CRBN in human 22Rv1 cells assessed as induction of AR-V7 degradation at 5 uM incubated for 24 hrs by Western blot analysis relative to control; assay type: cell-based; conditions: CWR22R
[2] = test system: Protein cereblon/Androgen receptor (Homo sapiens), P10275+Q96SW2 [UNDEFINED MUTATION]; experiment: PROTAC activity at AR-V7/CRBN in human 22Rv1 cells assessed as induction of AR-V7 degradation at 1 uM incubated for 24 hrs by Western blot analysis relative to control; assay type: cell-based; conditions: CWR22R
[3] = target: T1, Protein cereblon/Androgen receptor (Homo sapiens, UniProt P10275+Q96SW2); experiment: PROTAC activity at full length Androgen receptor/CRBN in human 22Rv1 cells assessed as induction of full length Androgen receptor degradation at 1 uM incubated for 24 hrs by Western blot analysis relative to control; assay type: cell-based
[4] = test system: CWR22R; experiment: Antiproliferative activity against human 22Rv1 cells incubated for 4 days by CCK-8 assay; assay type: functional, cell-based; conditions: 22Rv1, 96 h
[5] = target: T1, Protein cereblon/Androgen receptor; experiment: PROTAC activity at full length Androgen receptor/CRBN in human 22Rv1 cells assessed as induction of full length Androgen receptor degradation at 5 uM incubated for 24 hrs by Western blot analysis relative to control; assay type: cell-based
[6] = test system: CWR22R; experiment: Induction of apoptosis in human 22Rv1 cells assessed as viable cells at 100 nM incubated for 48 hrs by Annexin V/FITC staining based flow cytometry analysis (reference value: 94.49%); assay type: functional; conditions: read-out: Activity
[7] = test system: CWR22R; experiment: Induction of apoptosis in human 22Rv1 cells assessed as early apoptotic cells at 100 nM incubated for 48 hrs by Annexin V/FITC staining based flow cytometry analysis (reference value: 2.08 %); assay type: functional
[8] = test system: CWR22R; experiment: Inhibition of colony formation in human 22Rv1 cells assessed as reduction in colony formation incubated for 14 days; assay type: functional, cell-based; conditions: dose 1-100 nM, time 14.0 day
[9] = test system: CWR22R; experiment: Induction of cell cycle arrest in human 22Rv1 cells assessed as accumulation of cells at G0/G1 phase at 100 nM incubated for 24 hrs by PI staining based flow cytometry analysis (reference value: 62.66%); assay type: functional
[10] = test system: CWR22R; experiment: Induction of cell cycle arrest in human 22Rv1 cells assessed as accumulation of cells at S phase at 100 nM incubated for 24 hrs by PI staining based flow cytometry analysis (reference value: 28.73%); assay type: functional
[11] = test system: CWR22R; experiment: Induction of apoptosis in human 22Rv1 cells assessed as late apoptotic cells at 100 nM incubated for 48 hrs by Annexin V/FITC staining based flow cytometry analysis (reference value: 1.12 %); assay type: functional
[12] = test system: CWR22R; experiment: Induction of cell cycle arrest in human 22Rv1 cells assessed as accumulation of cells at G2/M phase at 100 nM incubated for 24 hrs by PI staining based flow cytometry analysis (reference value: 8.61%); assay type: functional
[13] = test system: CWR22R; experiment: Induction of apoptosis in human 22Rv1 cells assessed as necrotic cells at 100 nM incubated for 48 hrs by Annexin V/FITC staining based flow cytometry analysis (reference value: 2.31 %); assay type: functional
[14] = test system: Androgen receptor (Homo sapiens), P10275 [UNDEFINED MUTATION]; experiment: Binding affinity to AR-V7 in human 22Rv1 cells assessed as thermal stabilization at 10 uM incubated for 24 hrs by CETSA analysis; assay type: cell-based
[15] = target: T2, Androgen receptor (Homo sapiens) (UniProt P10275); experiment: Binding affinity to Androgen receptor in human 22Rv1 cells at 10 uM incubated for 24 hrs by SPR analysis; assay type: cell-based
T2 sequence (whole entry): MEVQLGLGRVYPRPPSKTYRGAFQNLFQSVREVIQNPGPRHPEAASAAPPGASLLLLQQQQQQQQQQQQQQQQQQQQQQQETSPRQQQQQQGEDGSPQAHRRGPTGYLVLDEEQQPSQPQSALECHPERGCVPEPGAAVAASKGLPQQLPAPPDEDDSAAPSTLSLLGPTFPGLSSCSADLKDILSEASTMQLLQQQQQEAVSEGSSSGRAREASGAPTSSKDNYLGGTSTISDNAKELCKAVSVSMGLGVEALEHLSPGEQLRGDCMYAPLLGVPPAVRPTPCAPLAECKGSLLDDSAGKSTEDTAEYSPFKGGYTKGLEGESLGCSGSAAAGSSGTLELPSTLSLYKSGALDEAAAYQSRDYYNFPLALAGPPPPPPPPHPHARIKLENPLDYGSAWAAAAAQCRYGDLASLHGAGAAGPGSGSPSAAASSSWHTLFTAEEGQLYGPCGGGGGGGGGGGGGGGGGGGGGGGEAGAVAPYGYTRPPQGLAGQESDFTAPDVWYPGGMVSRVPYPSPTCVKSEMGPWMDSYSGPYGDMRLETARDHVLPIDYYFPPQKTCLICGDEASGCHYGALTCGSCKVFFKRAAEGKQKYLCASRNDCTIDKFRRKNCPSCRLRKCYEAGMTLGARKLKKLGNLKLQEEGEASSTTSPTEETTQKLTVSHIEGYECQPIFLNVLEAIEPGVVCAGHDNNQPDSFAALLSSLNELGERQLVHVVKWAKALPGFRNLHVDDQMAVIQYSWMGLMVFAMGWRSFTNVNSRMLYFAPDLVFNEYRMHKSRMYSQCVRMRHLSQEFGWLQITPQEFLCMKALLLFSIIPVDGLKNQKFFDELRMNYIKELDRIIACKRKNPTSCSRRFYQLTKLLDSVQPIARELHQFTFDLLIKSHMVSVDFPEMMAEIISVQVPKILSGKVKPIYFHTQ

[16] = test system: Androgen receptor (Homo sapiens), P10275 [UNDEFINED MUTATION]; experiment: Binding affinity to AR-V7 in human 22Rv1 cells at 10 uM incubated for 24 hrs by SPR analysis; assay type: cell-based
[17] = target: T2, Androgen receptor (Homo sapiens); experiment: Binding affinity to Androgen receptor in human 22Rv1 cells assessed as thermal stabilization at 10 uM incubated for 24 hrs by CETSA analysis; assay type: cell-based

Protein cereblon/Androgen receptor (Homo sapiens), P10275+Q96SW2 [UNDEFINED MUTATION], sequence (Q96SW2 whole entry, looked up, change not shown, one chain of several): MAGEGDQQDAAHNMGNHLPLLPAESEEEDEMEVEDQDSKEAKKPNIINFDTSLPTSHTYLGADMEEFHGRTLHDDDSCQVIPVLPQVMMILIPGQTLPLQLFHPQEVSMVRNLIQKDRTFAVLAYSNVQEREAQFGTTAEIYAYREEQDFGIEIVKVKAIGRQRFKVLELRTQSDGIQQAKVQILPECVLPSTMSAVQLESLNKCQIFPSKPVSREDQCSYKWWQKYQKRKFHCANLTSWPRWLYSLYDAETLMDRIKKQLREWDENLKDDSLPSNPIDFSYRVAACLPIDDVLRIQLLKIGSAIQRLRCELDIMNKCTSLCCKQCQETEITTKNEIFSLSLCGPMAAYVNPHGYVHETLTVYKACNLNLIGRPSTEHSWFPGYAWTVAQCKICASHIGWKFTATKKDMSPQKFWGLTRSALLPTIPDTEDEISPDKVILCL
T1 sequence (Q96SW2 whole entry, looked up, one chain of several): as the sequence (Q96SW2 whole entry, looked up, change not shown, one chain of several) above

Activity [1] [%] | Activity [2] [%] | Activity [3] [%] | Activity [5] [%] | SMILES | pIC50 [4] | also measured
< 10 | < 10 | < 10 | < 10 | CC(C)(c1ccc(OCC(=O)NCCCCCNc2ccc3c(c2)C(=O)N(C2CCC(=O)NC2=O)C3=O)cc1)c1ccc(OCC(O)CCl)cc1 (configuration not stated) | < 4.70 | –
< 10 | < 10 | < 10 | < 10 | CC(C)(c1ccc(OCC(=O)NCCNc2ccc3c(c2)C(=O)N(C2CCC(=O)NC2=O)C3=O)cc1)c1ccc(OCC(O)CCl)cc1 (configuration not stated) | < 4.70 | –
< 10 | < 10 | < 10 | < 10 | CC(C)(c1ccc(OCC(=O)NCCCNc2ccc3c(c2)C(=O)N(C2CCC(=O)NC2=O)C3=O)cc1)c1ccc(OCC(O)CCl)cc1 (configuration not stated) | < 4.70 | –
69.8 | 62.1 | < 10 | 22.3 | CC(C)(c1ccc(OCC(=O)NC2CN(c3ccc4c(c3)C(=O)N(C3CCC(=O)NC3=O)C4=O)C2)cc1)c1ccc(OCC(O)CCl)cc1 (configuration not stated) | < 4.70 | –
< 10 | < 10 | < 10 | < 10 | CC(C)(c1ccc(OCC(=O)NCCCCNc2ccc3c(c2)C(=O)N(C2CCC(=O)NC2=O)C3=O)cc1)c1ccc(OCC(O)CCl)cc1 (configuration not stated) | < 4.70 | –
71.4 | 68.8 | 75.2 | 45.2 | CC(C)(c1ccc(OCC(=O)NC2CCN(c3ccc4c(c3)C(=O)N(C3CCC(=O)NC3=O)C4=O)CC2)cc1)c1ccc(OCC(O)CCl)cc1 (configuration not stated) | 5.44 | –
88.2 | 67.7 | 80.1 | 89 | CC(C)(c1ccc(OCC(=O)NC2CN(c3cccc4c3C(=O)N(C3CCC(=O)NC3=O)C4=O)C2)cc1)c1ccc(OCC(O)CCl)cc1 (configuration not stated) | 5.93 | –
79.9 | < 10 | < 10 | 69.6 | CC(C)(c1ccc(OCC(=O)N2CCC(CNc3ccc4c(c3)C(=O)N(C3CCC(=O)NC3=O)C4=O)CC2)cc1)c1ccc(OCC(O)CCl)cc1 (configuration not stated) | 4.82 | –

The next lines start with the compound.

SMILES | Activity [1] [%] | Activity [2] [%] | Activity [3] [%] | Activity [5] [%] | pIC50 [4] | also measured
CC(C)(c1ccc(OC[C@H](O)CO)cc1)c1ccc(OC[C@H](O)CCl)cc1 | < 10 | < 10 | < 10 | < 10 | < 4.70 | viability at 0.1 µM [6]: 80.7%; Activity [7]: 13.9%; inhibition [8]: Weak_effect; Activity [9]: 50.06%; Activity [10]: 38.87%; Activity [11]: 4.6%; Activity [12]: 11.07%; Activity [13]: 0.78%
CC(C)(c1ccc(OCC(=O)NC2CCN(c3cccc4c3C(=O)N(C3CCC(=O)NC3=O)C4=O)CC2)cc1)c1ccc(OCc2cccc(N3CCOCC3)n2)cc1 (configuration not stated) | 48.7 | < 10 | < 10 | 28.3 | < 4.70 | –
CC(C)(c1ccc(OCC(=O)NCCOCCOCCOCCNc2cccc3c2C(=O)N(C2CCC(=O)NC2=O)C3=O)cc1)c1ccc(OCc2cccc(N3CCOCC3)n2)cc1 (configuration not stated) | 40 | < 10 | 42.5 | 83.5 | 4.95 | –
CC(C)(c1ccc(OCC(=O)N2CCC(N3CCN(c4ccc5c(c4)C(=O)N(C4CCC(=O)NC4=O)C5=O)CC3)CC2)cc1)c1ccc(OCC(O)CCl)cc1 (configuration not stated) | < 10 | 33.2 | < 10 | < 10 | < 4.70 | –
CC(C)(c1ccc(OCCCCCCNc2ccc3c(c2)C(=O)N(C2CCC(=O)NC2=O)C3=O)cc1)c1ccc(OCC(O)CCl)cc1 (configuration not stated) | 21.2 | 74.7 | 90 | < 10 | 5.66 | –
CC(C)(c1ccc(OCCCCCCNc2cccc3c2C(=O)N(C2CCC(=O)NC2=O)C3=O)cc1)c1ccc(OCC(O)CCl)cc1 (configuration not stated) | 93 | 79.5 | 16.7 | < 10 | 5.19 | –
CC(C)(c1ccc(O)cc1)c1ccc(OCc2cccc(N3CCOCC3)n2)cc1 | – | – | – | – | – | Activity [14]: inactive; Activity [15]: Active; Activity [16]: Active; Activity [17]: inactive
CC(C)(c1ccc(OCC(=O)NCCCNc2cccc3c2C(=O)N(C2CCC(=O)NC2=O)C3=O)cc1)c1ccc(OCC(O)CCl)cc1 (configuration not stated) | 93.6 | 80.1 | 88.1 | 91.1 | 5.95 | –
CC(C)(c1ccc(OCC(=O)NCCCNc2cccc3c2C(=O)N(C2CCC(=O)NC2=O)C3=O)cc1)c1ccc(OCc2cccc(N3CCOCC3)n2)cc1 (configuration not stated) | 55.5 | < 10 | 22.1 | 78.6 | 5.13 | –
CC(C)(c1ccc(OCc2cccc(N3CCOCC3)n2)cc1)c1ccc(OCC2CCN(c3cccc4c3C(=O)N(C3CCC(=O)NC3=O)C4=O)CC2)cc1 (configuration not stated) | < 10 | < 10 | < 10 | < 10 | < 4.70 | –
CC(C)(c1ccc(OCCCCNc2ccc3c(c2)C(=O)N(C2CCC(=O)NC2=O)C3=O)cc1)c1ccc(OCC(O)CCl)cc1 (configuration not stated) | 23.6 | 55.1 | 88.1 | 81.1 | 5.51 | –
CC(C)(c1ccc(OCCCCNc2cccc3c2C(=O)N(C2CCC(=O)NC2=O)C3=O)cc1)c1ccc(OCC(O)CCl)cc1 (configuration not stated) | 89.3 | 78.1 | < 10 | 31.3 | 5.04 | –
CC(C)(c1ccc(OCC(=O)NCCCCCCNc2ccc3c(c2)C(=O)N(C2CCC(=O)NC2=O)C3=O)cc1)c1ccc(OCC(O)CCl)cc1 (configuration not stated) | < 10 | 32.2 | 84.1 | 72.1 | 4.94 | –
CC(C)(c1ccc(OCCCNc2cccc3c2C(=O)N(C2CCC(=O)NC2=O)C3=O)cc1)c1ccc(OCC(O)CCl)cc1 (configuration not stated) | 83.1 | 58.7 | 52.1 | 58.3 | 5.01 | –
CC(C)(c1ccc(OCCNc2cccc3c2C(=O)N(C2CCC(=O)NC2=O)C3=O)cc1)c1ccc(OCC(O)CCl)cc1 (configuration not stated) | 87 | 87.2 | 82.5 | < 10 | 5.11 | –
CC(C)(c1ccc(OCC(=O)NCCN2CCN(c3cccc4c3C(=O)N(C3CCC(=O)NC3=O)C4=O)CC2)cc1)c1ccc(OCc2cccc(N3CCOCC3)n2)cc1 (configuration not stated) | < 10 | < 10 | < 10 | < 10 | < 4.70 | –
